Values after ≈ are worked out from the molar mass of the structure shown. Values belong to the molecule of their own block, whether it stands above or below them.
Tests used:
[1] = cited from earlier work
Rat Limb Bone = experiment: 45Ca Release from Rat Limb Bone (inhibition of bone resorption); assay type: cell-based, rat (Sprague-Dawley CD); settings: for minimal effective concentration: concentration required to inhibit bone resorption, from regression analysis, read-out: MIC, Inhibition of Bone Resorption (45Ca release)
Description: Timed pregnant Sprague-Dawley CD rats (Charles River) are administered 100 uCi^45 CaCl2 (NEN calcium-45 NEZ-013) in 100 μl of 0.9% saline, subcutaneously, on day 18 of gestation. The rats are sacrificed the following day by asphyxiation. […] The modified BGJb media is obtained without salts glucose or bicarbonate and is supplemented before use with 0.1 mM MgCl2, 1.25 mM CaCl2, 5.3 mM KCl, 0.7 mM MgSO4, 130 mM NaCl, 1.0 mM NaH2 PO4, 1 g/1 glucose, 50 mg/1 Na acetate and 100 U/ml penicillin G. The medium is sterilized by passage through a […] filter (Nalge). Under a dissecting microscope, the bones are gently cleaned of adherent tissue and the cartilagenous ends removed. Step (2): Incubation and Drug Treatment The midshafts are placed, individually, on 3×3 mm squares of filter paper (Gelman […] filters; […] pore size) which rest on stainless steel screens in wells of 24-well culture plates containing 0.5 ml of preincubation medium. The preincubation medium is brought to 37 deg. C. prior to transfer of bones. The preincubation medium consists of the modified BGJb medium (with salts and glucose as above), pH 7.3, containing 29 mM NaHCO3. After incubation for 18-24 hours at 37° C. in 5% CO2, the bones are transferred on their screen/filter paper supports to new plates containing, in a total volume of 0.5 ml/well at 37° C., the test compound diluted in preincubation medium supplemented with 15% heat inactivated horse serum (Gibco No. 230-6050), pH 7.3, with or without a bone resorption stimulating agent (parathyroid hormone [PTH]). For compounds that require nonaqueous solvents, dilutions are made from the appropriate stock solution with medium. In these instances, basal and bone resorption stimulated controls exposed to an equivalent concentration of the vehicle are included. An additional group of bones that have been subjected to boiling for 1 hour are used to establish background, non cell mediated, exchange of ^45 Ca. The right ulna and radius from each fetus are used. Both bones are subjected to the same treatment and each treatment group consists of bones from 4 or more fetuses. Treatments are randomly assigned using a preclinical statistics program (PS-ALLOC). After a 48 hour incubation at 37° C. in 5% CO2, the bones are removed from the medium and extracted in 0.5 ml of 0.1N HCl for 1 or more days. Duplicate 150 μl aliquots of the incubation medium and the bone extract are analyzed for ^45 Ca radioactivity in 5 ml of liquid scintillation cocktail. The percentage of bone ^45 Ca released into the medium is determined as follows: [formula] Results are normally expressed as the ratio of the percent ^45 Ca release of the experimental group verses the appropriate vehicle control. […] A regression analysis is calculated for dose response and the concentration of test compound required to inhibit bone resorption (^45 Ca release) is reported (Table II).

Rat Femur = experiment: Immobilization Dependent Bone Loss in the Rat Femur (ovariectomized rats, unilateral sciatic neurotomy); assay type: in vivo; settings: 20 mg/kg, i.p., 5×/week for 4 weeks
Description: This assay was performed according to the procedure described by Kharode Y.P., Kowal D., O'Rourke S., and Hayward M., "Effect of Time and Pharmacologic Intervention on Bone Mineralization," J. Bone Min. Res. 2, Supp.1. (1987).
Bone mass was determined in the contralateral femora from ovariectomized rats which had been subjected to unilateral sciatic nerve severance. After sciatic neurotomy, the rats were treated with test compound for 2 to 4 weeks. The rats were euthanized, the femora were excised, debrided of soft tissue, and then dehydrated. After drying, the mass of each pair of femora was determined by weighing. The % change in bone mass is calculated using the formula: [formula]

[2] = Rattus norvegicus, 48 hour incubation at 37° C.

Molecule: [F-].[Na+] [sodium fluoride]
- bone growth quality ([1]; in vivo): irregular
- fracture incidence ([1]; in vivo): does not appear to be significantly lowered
- mitogenic activity for osteoblasts ([1]; in vivo): mitogenic for osteoblasts
- bone density increase ([1]; may result in increase up to 8-10% a year): 8-10 % a year

- IC50 (Rat Limb Bone; Rattus norvegicus, 48 hour incubation at 37° C., printed in the MIC (μg/mL) column): 3.5 µg/mL (≈ 13.5 µM)
Molecule: O=C1C=C(Oc2ccc(C(F)(F)F)cc2)C(O)O1 (stereo not drawn) [Example 5, 4-(4-Trifluoromethylphenoxy)-5-hydroxy-2(5H)-furanone]

Molecule: Estrogen
- side effects ([1]; in vivo): increased risk of certain types of cancers

Molecule: O=C1C=C(Oc2ccc(C3CCCC3)cc2)C(O)O1 (stereo not drawn) [Example 4, 4-(4-Cyclopentylphenoxy)-5-hydroxy-2(5H)-furanone]
- minimal effective concentration (Rat Limb Bone; [2]): 1 µg/mL

Molecule: CCCCCCCCc1ccc(OC2=CC(=O)OC2O)cc1 (stereo not drawn) [Example 3, 4-(4-Octylphenoxy)-5-hydroxy-2(5H)-furanone]
- minimal effective concentration (Rat Limb Bone; [2]): 10 µg/mL

Molecule: O=C1C=C(Oc2ccc(-c3ccccc3)cc2)C(O)O1 (stereo not drawn) [Example 1, 4-([1,1'-Biphenyl]-4-yloxy)-5-hydroxy-2(5H)-furanone]
- minimal effective concentration (Rat Limb Bone; [2]): 10 µg/mL
- % Change in Bone Mass (Rat Femur): 4.8 ± 0.6%

Molecule: O=C1C=C(Oc2ccc(Sc3ccccc3)cc2)C(O)O1 (stereo not drawn) [Example 7, 4-[4-thiophenyl-1-phenoxy]-5-hydroxy-2(5H)-furanone]
- minimal effective concentration (Rat Limb Bone; [2]): 10 µg/mL

B1: PTH: bone resorption stimulating agent (parathyroid hormone [PTH]) (protein, UniProt P01270 32-115, looked up)
Parathyroid hormone: SVSEIQLMHNLGKHLNSMERVEWLRKKLQDVHNFVALGAPLAPRDAGSQRPRKKEDNVLVESHEKSLGEADKADVNVLTKAKSQ
- ratio of the percent 45Ca release vs vehicle control (basal = 1.00) (Rat Limb Bone; PTH 10^-7 M, bone resorption agent, 'commonly'): 1.3-2.0

From patent US5336687A, “Inhibition of bone loss by 4-aryloxy-5-hydroxy-2(5H)-furanones” (American Home Products Corporation, priority 1993, dated 1994)
